# Source: US20250281647A1, “STEALTH LIPID NANOPARTICLE COMPOSITIONS FOR CELL TARGETING” (Generation Bio Co., priority 2023, published 2025)
# pKd: −log10 of the molar value.
# Target: T1, ASGPR (Homo sapiens, UniProt P07306)
# T1 sequence (P07306 1-291): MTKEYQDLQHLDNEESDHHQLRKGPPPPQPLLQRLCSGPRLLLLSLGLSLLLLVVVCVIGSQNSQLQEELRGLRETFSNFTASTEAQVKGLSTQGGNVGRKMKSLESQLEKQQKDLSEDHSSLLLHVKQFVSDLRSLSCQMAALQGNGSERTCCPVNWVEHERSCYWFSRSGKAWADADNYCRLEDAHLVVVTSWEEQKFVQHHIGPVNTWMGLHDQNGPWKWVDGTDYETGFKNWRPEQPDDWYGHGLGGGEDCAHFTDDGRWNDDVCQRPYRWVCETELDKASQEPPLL
# Assay: Binding of targeting ligand formats to ASGPR
# Settings: read-out: dissociation constants (Kd)
# Text: In this example, multiple targeting ligand formats with varying affinities to ASGPR and off target receptors were compared. […] The high degree of over modification refers to modifying each Fab with more than 1 SATA molecule leading to multiple points of PEG-Mal conjugation during the final phase of ctLNP formulation and conjugation.
structure (smiles),measurement,value
CC(=O)N[C@H]1C(O)O[C@H](CO)[C@H](O)[C@@H]1O (stereo partly shown) [GalNAc],pKd,~7.51
